Data as given in US11458126B2, “DHODH inhibitor for use in treating hematologic cancers” (PTC THERAPEUTICS, INC., priority 2017, dated 2022).

How the values were obtained:
DHODH [1] = target: DHODH (Homo sapiens, UniProt Q02127); test: Purified rhDHODH enzymatic assay; type: biochemical; design: full length purified recombinant human DHODH or mitochondria isolated from K562 cells were used as enzyme sources; conditions: compared with activity in hematologic cancer cells and other DHODH inhibitors
Text: Low pyrimidine pool levels may affect certain translation factor(s) or mechanisms required for the non-canonical protein synthesis of stress-regulated mRNAs. […] EIF1A is an isoform that controls translation start codon recognition. Low uridine levels may also affect the mRNA substrate directly: depletion of pyrimidine nucleotides in cancer cells can cause a starvation-like stress response leading to changes in methylation and pseudouridylation of mRNA modifications.
In Vitro DHODH Activity Assays. The chromogen reduction assay was carried out as previously reported. DHODH activity was determined in the presence of compounds or vehicle control using the standard colorimetric DHODH continuous assay in which the oxidation of dihydroorotic acid (DHO) and subsequent reduction of ubiquinone is coupled with and measured by monitoring the reduction of 2,6-dichlorophenolindophenol (DCPIP). Briefly, full length purified recombinant human DHODH or mitochondria isolated from K562 cells were used as enzyme sources to test compound inhibition of DHODH activity. […] The DCIP reduction was monitored by measuring the absorbance at OD610 nm on a BioTek Power Wave XS2 and the enzyme reaction velocity was derived for each reaction using the GENS software.

MOLM-13 AML cells [2] = test: Leukemia cell proliferation, comparison of DHODH inhibitors; type: cell-based; conditions: Homo sapiens, MOLM-13, 96 h, proliferation (FIG. 4d)
DHODH [3] = test: Serum DHO in NF2 clinical study subjects; type: in vivo, human; conditions: three additional NF2 subjects (FIG. 3b)
[4] = Blood-brain barrier penetration, whole-body autoradiography; type: in vivo; conditions: evaluation, rats
MOLM-13 AML cells [5] = test: MOLM-13 human acute myeloid leukemia xenograft model; type: in vivo; conditions: nude mice, flank tumor; vehicle 7 days (FIG. 6)
Description: Human Xenograft Model: HT1080 or MOLM-13 tumor cells in log phase growth (5-10×10^6 cells/mouse, depending on cell lines) were implanted subcutaneously in male athymic nude mice. When the average tumor size reached the indicated size, mice were randomly divided into groups (10-15 mice/group) and administered vehicle or test compounds orally, once a day or twice per day as indicated. Tumor size was measured using calipers at periodic intervals during the study and tumor volume was calculated as L×W^2/2, in which L represents the longest and W is the shortest diameter of the tumors. At the end of the experiments, tumors were excised and homogenized on ice in Tris-HCl buffer containing a cocktail of proteinase inhibitors using a Powergen homogenizer fitted with Omni-Tip disposable/reusable probes (both from Fisher Scientific). Intratumoral levels of growth factors and proteins were measured using commercially available ELISA kits (R&D Systems). Protein concentrations of the homogenates were measured (Bio-Rad protein assay kit) and intratumoral growth factor levels normalized to the total protein concentration.

[6] = subjects with solid tumors [24]; cited from earlier work
[7] = tested on: de novo pyrimidine nucleotide synthesis in HT1080 cells; test: 15N-glutamine tracing study: pyrimidine nucleotide synthesis metabolites by LC-MS/MS; type: cell-based, human
Description: HT1080 cells in log phase growth were seeded in 10 cm dishes (4×10^6 cells/dish) and cultured in regular DMEM supplemented with 10% fetal bovine serum (FBS), penicillin (50 IU/mL), and streptomycin (50 μg/mL). After overnight incubation, the culture medium was replenished with glutamine free DMEM containing 1 g/L glucose, 10% fetal bovine serum (FBS), penicillin (50 IU/mL), streptomycin (50 μg/mL) and 1 mM ^15N-glutamine (Sigma, Cat #: 490024). After culturing for the indicated time in the presence of compounds or vehicle control (0.5% DMSO), the cells were washed once with cold PBS (5 mL) and harvested and lysed in cold distilled H2O (0.5 mL) with −80° C. methanol (1 mL) using a plastic cell scraper. The cell lysates were then centrifuged at 10,000×g for 15 minutes at 4° C., and supernatant collected for LC-MS/MS analysis of the ^15N-labelled de novo pyrimidine synthesis metabolites.
LC-MS/MS Detection of Metabolites. Quantification of ^15N-labelled de novo pyrimidine synthesis metabolites was carried out on an Accela pump and a PAL auto-sampler coupled to a TSQ Quantum Ultra mass spectrometer. The mass spectrometer was equipped with a heated electrospray ionization source operated in negative-ion mode (Thermo Fisher Scientific, Waltham, Mass.). The ion spray voltage was set at 2500 V, capillary temperature at 350° C., vaporizer temperature at 300° C.; sheath gas pressure at 50 units and auxiliary gas pressure at 5 units. A Thermo Fisher Scientific Hypercab column (3μ, 50×2.1 mm) was used and maintained at 50° C. for metabolite separation. Mobile phase A was 10 mM NH4HCO3 in water, pH 9.4, and mobile phase B was 10 mM NH4HCO3 in ACN-water (9:1). The flow rate was set at 0.50 mL/min.

[8] = target: panel of biologically important human kinases; test: Kinase panel; type: biochemical; conditions: off-target panel
Text: (§1) The side-effects associated with these DHODH inhibitors are believed to be due to off-target activities such as kinase inhibition [21; 22]. […] The antiviral compound GSK983 was recently reported as a DHODH inhibitor [23]. […] FACS analysis was done on FACSCalibur (FIG. 8).

[9] = tested on: MOML-13 acute myeloid leukemia (AML) cells; test: In vitro differentiation, CD14 and CD11b staining, FACS; type: cell-based, human; conditions: 100 nM, 72 hours, vs DMSO, anti-CD14 and CD11b (FIG. 8)
Text: as §1

[10] = cells treated 100 nm for 8 hours in presence of 15N-glutamine, BLDL = Below Detection Limits

DHODH (Homo sapiens, UniProt Q02127), sequence (Q02127 whole entry, canonical isoform): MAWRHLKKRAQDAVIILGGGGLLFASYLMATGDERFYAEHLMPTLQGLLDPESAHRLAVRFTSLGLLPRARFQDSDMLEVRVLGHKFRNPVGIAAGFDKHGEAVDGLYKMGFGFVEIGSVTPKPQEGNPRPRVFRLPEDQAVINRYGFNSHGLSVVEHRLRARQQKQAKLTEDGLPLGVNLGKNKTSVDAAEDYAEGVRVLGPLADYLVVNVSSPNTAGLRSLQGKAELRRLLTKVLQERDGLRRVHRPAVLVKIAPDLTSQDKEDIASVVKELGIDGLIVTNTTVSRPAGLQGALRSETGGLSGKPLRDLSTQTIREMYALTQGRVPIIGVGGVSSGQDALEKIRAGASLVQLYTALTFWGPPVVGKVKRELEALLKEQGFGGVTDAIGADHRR

COc1ccc([C@H]2c3[nH]c4ccc(Cl)cc4c3CCN2C(=O)Oc2ccc(Cl)cc2)cc1 [Cpd 1, 4-chlorophenyl (S)-6-chloro-1-(4-methoxyphenyl)-1,3,4,9-tetrahydro-2H-pyrido[3,4-b]indole-2-carboxylate]
inhibition of DHODH functional activity in purified rhDHODH enzymatic assays (DHODH [1]): less inhibition of DHODH functional activity | IC50 (MOLM-13 AML cells [2]): ~1 nM | serum DHO (DHODH [3]): increased serum DHO | blood-brain barrier penetration [4]: penetrates the blood-brain barrier | median time to reach a tumor volume of 1000 mm^3 (MOLM-13 AML cells [5]): 23 days | myeloid suppression [6]: did not show myeloid suppression | de novo pyrimidine synthesis (15N-labelled CTP, UTP and UMP) ([7]; HT1080 cells, LCMS (FIG. 1b)): inhibits de novo pyrimidine synthesis | ^15N-Orotate ([7]; cells treated 100 nm for 8 hours in presence of 15N-glutamine): 44.8 ± 6.1 µM | ^15N-DHO [7, 10]: 18.1 ± 5.5 µM | ^15N-UMP [7, 10]: BLDL | pyrazofurin-MP-induced increase of 15N-orotate ([7]; co-treatment with pyrazofurin-MP, HT1080 cells (FIG. 1c)): blocked | kinase enzyme activity [8]: lack of inhibition of kinase enzyme activity | in vitro differentiation [9]: induces in vitro differentiation
